Earlier results as cited in patent publication US9707174B2, “Aqueous ophthalmic solution of olopatadine” (Gavis Pharmaceuticals, priority 2015, dated 2017).

Conditions: pH about 7.0, room temperature, olopatadine by itself

- soluble in water up to a concentration: about 0.18 w/v %
SMILES: CN(C)CC/C=C1/c2ccccc2COc2ccc(CC(=O)O)cc21 [olopatadine]
